Laboratory results as given in patent US12357605B2, “Muscle building agent” (KANEKA CORPORATION, priority 2019, dated 2025).

System: muscle satellite cells
Assay: Evaluation of muscle satellite cell activating effect (ratio of BrdU positive cells)
Format: cell-based, SD rat
Conditions: for Ratio of activated muscle satellite cells, Mean: 24 hours culture, BrdU positive cells / total cells, solvent control 41.3%; for muscle satellite cell activating effect: in comparison with the solvent control, result in words
Method: The muscle satellite cells activation effect can be evaluated by, for example, the following in vitro test. Specifically, muscle satellite cells are isolated from an animal and cultured in a culture medium containing test sample for 24 hours. Then, bromodeoxyuridine (BrdU) is added thereto at the final concentration of 10 μM, and the mixture is incubated for 2 hours. Next, the muscle satellite cells are fixed at 4° C. for 10 minutes with ice-cooled methanol containing 0.1% H2O2 and are subjected to DNA denaturation treatment at 37° C. for 1 hour using 2 N hydrochloric acid, and BrdU positive cells are detected by using anti-BrdU antibody as a primary antibody, HRP-conjugated anti-mouse IgG antibody as a secondary antibody, and coloring with diaminobenzidine (DAB). The ratio of BrdU positive cells to the total number of cells is calculated as the ratio of activated muscle satellite cells. It is judged with respect to the ratio of activated muscle satellite cells of the muscle building agent according to the present invention that muscle satellite cells are activated in the case where a ratio of activated muscle satellite cells is increased by a treatment with a test substrate in comparison with a solvent control. An increase to a solvent control is preferably 2% or more, more preferably 3% or more and even more preferably 5% or more.
Muscle tissues were isolated from the upper hindlimb and back of 6-month old male SD rat (from Japan SLC). The muscle tissues were trimmed of adipose and connective tissue, minced, and treated with PBS containing 1.25 mg/mL protease (Sigma) at 37° C. for 1 hour. After muscle fiber fragments and tissue debris were removed by centrifugation, the cells were seeded on plates coated with polylysine (Sigma) and fibronectin (Sigma). After the cells were cultured in 5% CO2 atmosphere at 37° C. for 24 hours, muscle satellite cells were isolated by washing with PBS. DMEM (“Dulbecco's Modified Eagle Medium”, Thermo Fisher Scientific) containing 10% horse serum (Thermo Fisher Scientific) was used as a culture media. The culture media is hereinafter abbreviated as “10% HS-DMEM”.
The casuarinin prepared in Example 1 or the stachyurin prepared in Example 2 was dissolved in water and added in 10% HS-DMEM to prepare the 10% HS-DMEM containing casuarinin or stachyurin. The culture medium of the isolated muscle satellite cells were exchanged for the 10% HS-DMEM containing casuarinin or stachyurin, and the muscle satellite cells were cultured for 24 hours. Casuarinin concentrations were adjusted to 0.01 to 1.1 μM (13 to 1000 ng/mL), and stachyurin concentrations were adjusted to 0.09 to 0.4 μM (83 to 333 ng/mL). As a solvent control, 10% HS-DMEM was used.
Bromodeoxyuridine (BrdU, Sigma) was added to the culture medium at the final concentration of 10 μM, and the mixture was incubated for 2 hours. Then, the muscle satellite cells were fixed at 4° C. for 10 minutes with ice-cooled methanol containing 0.1% H2O2 and were further subjected to DNA denaturation treatment using 2 N hydrochloric acid at 37° C. for 1 hour, and BrdU positive cells were detected by using anti-BrdU antibody (Sigma) as a primary antibody, HRP-conjugated anti-mouse IgG antibody (Sigma) as a secondary antibody, and coloring with diaminobenzidine (DAB, Sigma). The ratio of BrdU positive cells to the total number of cells was calculated as the ratio of activated muscle satellite cells. The experiments were performed in 12 independent cell cultures in the case of the solvent control, and in 3 independent cultures in each concentration in the case of casuarinin or stachyurin. Data were expressed as the mean and standard deviation. The “*” in FIGS. 1 and 2 represents that the difference to the solvent control was statistically significant at p<0.05 by Dunnett's test. […]

Row | SMILES | Ratio of activated muscle satellite cells, Mean (100 ng/mL) [%] | also measured
1 | O=C1OC[C@H]2OC(=O)c3cc(O)c(O)c(O)c3-c3c(O)c(O)c(O)c4c3C(=O)O[C@H]([C@H]3OC(=O)c5c-4c(O)c(O)c(O)c5[C@H]3O)[C@@H]2OC(=O)c2cc(O)c(O)c(O)c2-c2c1cc(O)c(O)c2O [Castalagin, castalagin, reference compound] | 39.4 | –
2 | O=C(O[C@@H]1OC2COC(=O)c3cc(O)c(O)c(O)c3-c3c(cc(O)c(O)c3O)C(=O)O[C@H]2[C@@H]2OC(=O)c3cc(O)c(O)c(O)c3-c3c(cc(O)c(O)c3O)C(=O)OC12)c1cc(O)c(O)c(O)c1 (stereo partly drawn) [Casuarictin, casuarictin, reference compound] | 39.2 | –
3 | O=C(O[C@@H]1COC(=O)c2cc(O)c(O)c(O)c2-c2c(cc(O)c(O)c2O)C(=O)O[C@H]1[C@@H]1OC(=O)c2cc(O)c(O)c(O)c2-c2c(O)c(O)c(O)c3c2C(=O)O[C@H]1C3O)c1cc(O)c(O)c(O)c1 (stereo partly drawn) [Casuarinin, casuarinin] | 50.8 | Ratio of activated muscle satellite cells, Mean (0.01 μM (13 ng/mL)): 43.3%; Ratio of activated muscle satellite cells, Mean (0.03 μM (25 ng/mL)): 44.9%; Ratio of activated muscle satellite cells, Mean (0.05 μM (50 ng/mL)): 51.3%; Ratio of activated muscle satellite cells, Mean (0.3 μM (250 ng/mL)): 48.8%; Ratio of activated muscle satellite cells, Mean (1.1 μM (1000 ng/mL)): 43.7%; muscle satellite cell activating effect: significant muscle satellite cell activating effect
4 | Oc1cc(O)c2c(c1)O[C@@H](c1ccc(O)c(O)c1)[C@H](O)C2 [Catechin, catechin, reference compound] | 42.1 | –
5 | O=c1oc2c(O)c(O)cc3c(=O)oc4c(O)c(O)cc1c4c23 [Ellagic acid, ellagic acid, reference compound] | 38.3 | –
6 | O=C(O)c1cc(O)c(O)c(O)c1 [Gallic acid, gallic acid, reference compound] | 37.8 | –
7 | O=c1c(O[C@@H]2O[C@H](CO)[C@H](O)[C@H](O)[C@H]2O)c(-c2ccc(O)c(O)c2)oc2cc(O)cc(O)c12 [Hyperin, hyperin, reference compound] | 38.2 | –
8 | C[C@@H]1OC(Oc2c(-c3cc(O)c(O)c(O)c3)oc3cc(O)cc(O)c3c2=O)[C@H](O)[C@H](O)[C@H]1O (stereo partly drawn) [Myricitrin, myricitrin, reference compound] | 41.8 | –
9 | C[C@@H]1O[C@@H](Oc2c(-c3ccc(O)c(O)c3)oc3cc(O)cc(O)c3c2=O)[C@H](O)[C@H](O)[C@H]1O [Quercitrin, quercitrin, reference compound] | 40.0 | –
10 | O=C(O[C@@H]1COC(=O)c2cc(O)c(O)c(O)c2-c2c(cc(O)c(O)c2O)C(=O)O[C@H]1[C@@H]1OC(=O)c2cc(O)c(O)c(O)c2-c2c(O)c(O)c(O)c3c2C(=O)O[C@H]1[C@H]3O)c1cc(O)c(O)c(O)c1 [Stachyurin, stachyurin] | – | Ratio of activated muscle satellite cells, Mean (0.09 μM (83 ng/mL)): 44.7%; Ratio of activated muscle satellite cells, Mean (0.4 μM (333 ng/mL)): 48.5%; muscle satellite cell activating effect: significant muscle satellite cell activating effect
